Results from patent US20240327459A1, “PEPTIDE FRAGMENTS FOR TREATMENT OF DIABETES” (Follicum AB, priority 2018, published 2024).
“Also recorded” adds a separate entry of the source.

Assays:
[1] = test system: INS-1E cells; test: Insulin secretion from INS-1E cells (Example 18); format: cell-based, rat; details: 100 nM peptide, high (16.7 mM) glucose buffer, 60 min, vs un-supplemented buffer
Method: To investigate the stimulatory effect of FOL-056 on insulin secretion we used INS-1E cells. The cells were seeded overnight and washed with PBS before pre-incubation for 60 min at 37° C. in Krebs-Ringer bicarbonate buffer (KRB), pH 7.4, supplemented with 10 mM HEPES, 0.1% bovine serum albumin. Following pre-incubation, the buffer was discarded and the INS-1E cells were incubated in fresh KRB buffer supplemented with 10 mM HEPES, 0.1% bovine serum albumin with or without peptide FOL-056. For comparative purposes cells treated with FOL-014 was included. Following 60 min incubation at 37.C, the buffer was removed and frozen for subsequent insulin assay.

[2] = test system: INS-1E cells; test: Insulin secreting capacity after 72 hours of glucotoxic conditions (Examples 19, 22); format: cell-based, rat; details: Example 19, 20 mM glucose 72 hours with peptide, then 16.7 mM glucose 1 h
Method: To investigate the β-cell protective effect of FOL-056, we subjected INS-1E to cytotoxic levels of glucose for 72 hours. Rat INS-1E cells were seeded in 96-well plates (2×10^3 cells/well) in cRPMI medium. Following 72 hours of incubation, the medium was changed to RPMI containing 20 mM glucose with or without FOL-056 or FOL-014 and were cultured at 37° C. during an additional 72 hours to induce glucotoxicity. RPMI containing 5 mM glucose was included as a low glucose control. Following 72 hours, the medium was removed and the INS-1E cells were equilibrated in Krebs-Ringer bicarbonate buffer (KREB), pH 7.4, (supplemented with 10 mM HEPES, 0.1% bovine serum albumin and 2.8 mM glucose) for 2 hours. After equilibration, the buffer was changed and the INS-1E cells were incubated in KREBs containing 16.7 mM glucose […] during 1 h. Immediately after incubation, an aliquot of the buffer was removed and frozen for subsequent assay of insulin content.
To investigate the β-cell protective effect of several novel peptide fragments derived from FOL-005 and FOL-014, INS-1 cells were subjected to cytotoxic levels of glucose for 72 hours. […] In order to correct for the variance between experiments, all values were normalized to, and expressed as percentage of the average value of the high glucose control in the individual experiments. […]

[3] = test system: human pancreatic β-cell line 1.2B4; test: Insulin secretion from 1.2B4 human β-cells; format: cell-based; details: 100 nM peptide, 16.7 mM glucose, 60 minutes
Method: In order to test the effect of FOL-014 and FOL-056 in human cells, the human pancreatic β-cell line 1.2B4 were cultured at 37° C. and 5% CO2 in RPMI 1640 supplemented with 10% fetal bovine serum, 50 IU/mL penicillin, 50 mg/L streptomycin, 1 mM L-glutamine. 1.2B4 cells were seeded in 24-well plates in RPMI medium and following overnight incubation, the medium was removed before pre-incubation for 40 min at 37° C. in Krebs-Ringer bicarbonate buffer, pH 7.4, supplemented with 10 mM HEPES, 0.1% bovine serum albumin and 1.0 mM glucose. Following pre-incubation, the buffer was exchanged with fresh Krebs-Ringer buffer as described above and supplemented with specific glucose concentrations, 1 mM or 16.7 mM. FOL-014, FOL-056 or Liraglutide was added at a concentration of 100 nM in the presence of 16.7 mM glucose. Immediately after 60 minutes incubation at 37° C., an aliquot of the buffer was removed and frozen for subsequent insulin ELISA assay. (FIG. 18)

[4] = test system: human islets; test: Insulin secretion from human pancreatic islets; format: cell-based; details: 1 nM peptide, 16.7 mM glucose, 60 minutes, two donors
Method: To investigate the functionality of FOL-056 in human primary tissue, the pancreatic islets from two non-diabetic human donors were used. Islets were picked, aliquoted in groups of 12 and incubated at 37° C. in 1 ml Krebs-Ringer bicarbonate buffer, pH 7.4, supplemented with 10 mM HEPES, 0.1% bovine serum albumin and 1.0 mM glucose. Following pre-incubation, the buffer was exchanged with fresh Krebs-Ringer buffer as described above and supplemented with specific glucose concentrations (1 mM or 16.7 mM), FOL-056 peptides (1 nM) or Liraglutide (100 nM). Immediately after 60 minutes incubation at 37° C., an aliquot of the buffer was removed and frozen for subsequent insulin ELISA assay. (FIG. 19)

[5] = test system: diet induced obese c57BI6 mice; test: Acute insulin response in diet induced obese mice after long term dosing; format: in vivo, mouse; details: 300 nmol/kg subcutaneously 5 days per week, 12 weeks high fat diet; 1 minute after 1 g/kg iv glucose; P=0.01
Method: Materials and methods: To investigate the effects of FOL-056 in vivo in a high fat diet model, wild type c57BI6 mice were subcutaneously dosed 5 days per week with 300 nmol/kg FOL-056, while being fed high fat diet for 12 weeks. Control animals were dosed with PBS.
In diet induced obese c57BI6 mice, untreated or dosed with FOL-056, the fasting plasma insulin levels were measured before as well as 1 minute after an intravenous glucose injection of 1 g/kg. The insulin value measured before the glucose injection was subtracted from the value measured after the injection for each individual mouse in order to obtain the acute insulin response (AIR). (FIG. 20)

[6] = test system: db/db mice; test: HbA1c in db/db mice after 4 weeks of dosing; format: in vivo, mouse; details: 100 nmol/kg subcutaneously, 5 days per week for 4 weeks, vs PBS control
Method: To investigate the long-term effect of FOL-014 and FOL-056 in diabetic mice, db/db mice were dosed with 100 nmol/kg peptide subcutaneously, 5 days per week for 4 weeks. Control mice were injected with PBS. After 4 weeks of treatment the mice were terminated and 25 μl whole blood was immediately frozen for subsequent HbA1c analysis. (FIG. 21).

## AEIDSIELSYGIK (MISC_FEATURE - peptide) [FOL-056]
[1]
  insulin secretion: secrete significantly more insulin compared to unstimulated control cells; also recorded: significantly increased the insulin secretion as compared with cells treated with an un-supplemented high glucose buffer
[2]
  insulin secreting ability after glucotoxic conditions: preserves β-cell function as shown by retained glucose induced insulin secretion; also recorded: abolished the glucotoxic effects and retained insulin release at the same level as from β-cells in the low (5 mM) glucose treatment group
[3]
  insulin secretion: increase the insulin secretion capacity in 1.2B4 human β-cells; also recorded: significantly increased the insulin secretion as compared with cells treated with an un-supplemented high glucose buffer
[4]
  insulin secretion: potentiates the capacity of primary human pancreatic islets to secrete insulin as a response to high glucose levels; also recorded: significantly increased the insulin secretion as compared with cells treated with an un-supplemented high glucose buffer
[5]
  acute insulin response (AIR): significantly improved; also recorded: significantly higher
[6]
  HbA1c: reduce the HbA1c in db/db mice as compared with the untreated control group; also recorded: significantly lower HbA1c
